{"source": "patent US8377640B2", "about": "“Diagnostic screens for Alzheimer's disease” (ISIS Innovation Ltd., priority 2001, dated 2013)", "key": {"cultured lymphocytes [1]": {"system": "cultured lymphocytes", "test": "MTT survival assay of PHA-activated lymphocyte cultures, treated versus control", "assay_type": "cell-based, human", "method": "In the second set of experiments (53 subjects) after an initial 48 hours incubation (as above) four separate cultures were set up. Control cultures were left without any treatment, one set of cultures was treated with 100 ng/ml rapamycin, the third set was treated with 1 μM doxorubicin while the fourth set was treated with 120 μM H2O2. Doxorubicin induces DNA damage, leading to arrest at G2/M, rather than G1/S. H2O2 treatment produces oxidative stress, leading to a reversible and temporary cell cycle arrest at G1/S.\nAfter 20 hours of incubation a 4 hour long MTT survival assay (Chemicon International Ltd) was set up. Results were read using a microplate reader (570 filter; 630 reference filter). The ratio between cell numbers in treated cultures versus controls was expressed as percent."}, "cultured lymphocytes [2]": {"system": "cultured lymphocytes", "test": "Relative lengthening of the G1 phase (BrdU incorporation, FACS) in PHA-activated lymphocyte cultures treated with rapamycin", "assay_type": "cell-based, human", "details": "100 ng/ml rapamycin; for dG1: relative lengthening of the G1 phase of the cell cycle under Rapamycin effect: 24 h; for Mean (dG1): group mean", "method": "A first set of experiments was carried out on 49 subjects (Table 1A), whilst a second set of experiments was carried out on 55 subjects (Table 1B). In the first set of experiments (49 subjects) two parallel lymphocyte cultures were set up from every individual in RPMI medium supplemented with 10% FCS at a concentration of 1×10^6 cells per 1 ml of culture media. Phytohaemaglutinin (PHA) was added to the cultures at a final concentration of 22 μg/ml to activate the lymphocytes. Cultures were incubated for 48 hours at 37° C. in a humidified atmosphere containing 5% CO2. After 48 hours incubation one culture was treated with 100 ng/ml rapamycin, while the other untreated culture was kept as a control. After a further 23 hours incubation BrdU was added in a concentration of 10 μg/ml to all cultures. After another hour cultures were ‘collected’ and fixed in 70% ice-cold ethanol. BrdU incorporation was assessed using immunohistochemistry followed by FACS analysis. The proportion of cells in various phases of the cell cycle was determined and data transformation performed to obtain the relative lengthening of the G1 phase (FIG. 1).\nThe calculations (relative lengthening of the G1 phase of the cell cycle in treated cultures relative to control cultures) were based on the assumptions that cells were in the exponential phase of proliferation and that the growth fraction in the cultures (ratio of dividing cells versus quiescent cells) was 1.0 (5). It was also assumed that rapamycin only altered the length of the G1 phase (19). Based on these assumptions the relative lengthening of the G1 phase was calculated using the formula: RL=100f-100 (expressed in percent). The ratio of the G1 time in treated versus control cultures: f=TG1tr/TG1c=[1n2−1n(2−G1tr)][1n(2−G1c)]/[1n(2−G1tr)][1n2−1n(2−G1c)] (5)"}}, "note": "“And” between values parts separate entries of the source, which are not always exact repeats. Identical values can stand only once.", "data": [{"smiles": "COc1cccc2c1C(=O)c1c(O)c3c(c(O)c1C2=O)C[C@@](O)(C(=O)CO)C[C@@H]3O[C@H]1C[C@H](N)[C@H](O)[C@H](C)O1", "note": "[Doxorubicin, doxorubicin]", "values": [{"measurement": "Cell numbers after treatment (treated versus control cultures)", "setting": "cultured lymphocytes [1]; 1 μM doxorubicin, 24 h, comparison between patient groups", "result": "did not result in significant differences between patient groups"}]}, {"smiles": "OO", "note": "[H2O2]", "values": [{"measurement": "Cell numbers after treatment (treated versus control cultures)", "setting": "cultured lymphocytes [1]; 120 μM H2O2, 24 h, AD, preAD and possAD patients versus control subjects", "result": "significantly higher cell numbers than control subjects"}]}, {"smiles": "CO[C@H]1C[C@@H]2CC[C@@H](C)[C@@](O)(O2)C(=O)C(=O)N2CCCC[C@H]2C(=O)O[C@H]([C@H](C)C[C@@H]2CC[C@@H](O)[C@H](OC)C2)CC(=O)[C@H](C)/C=C(\\C)[C@@H](O)[C@@H](OC)C(=O)[C@H](C)C[C@H](C)/C=C/C=C/C=C/1C", "note": "[rapamycin]", "values": [{"measurement": "dG1: relative lengthening of the G1 phase of the cell cycle under Rapamycin effect", "setting": "cultured lymphocytes [2]; lymphocytes of individual patients, diagnosis AD (probable AD, NINCDS)", "result": "44.03% and 97.07% and 82.67% and 62.12% and 73.01% and 47.91% and 53.63% and 0% and 27%"}, {"measurement": "dG1: relative lengthening of the G1 phase of the cell cycle under Rapamycin effect", "setting": "cultured lymphocytes [2]; lymphocytes of individual patients, diagnosis ADM", "result": "64.28% and 39.2% and 95.23% and 46.31% and 59.49% and 51.81% and 51.62%"}, {"measurement": "dG1: relative lengthening of the G1 phase of the cell cycle under Rapamycin effect", "setting": "cultured lymphocytes [2]; lymphocytes of individual patients, diagnosis DNOS", "result": "31.64% and 69.07% and 97.27%"}, {"measurement": "dG1: relative lengthening of the G1 phase of the cell cycle under Rapamycin effect", "setting": "cultured lymphocytes [2]; lymphocytes of individual patients, diagnosis possAD", "result": "56.77% and 60.1% and 98.1%"}, {"measurement": "dG1: relative lengthening of the G1 phase of the cell cycle under Rapamycin effect", "setting": "cultured lymphocytes [2]; lymphocytes of individual subjects, diagnosis Control", "result": "51.69% and 64.1% and 40.07% and 114.1% and 119.8% and 50.04% and 177.8% and 62.81% and 54.56% and 162.7% and 97.33% and 46.02% and 110.8% and 140.6%"}, {"measurement": "dG1: relative lengthening of the G1 phase of the cell cycle under Rapamycin effect", "setting": "cultured lymphocytes [2]; lymphocytes of individual subjects, diagnosis preAD", "result": "0% (3×) and 26.1% and 36.18% and 54.46% and 39.2% and 72.58% and 44.49% and 31.37% and 25.47% and 35.02% and 42.1%"}, {"measurement": "Mean (dG1)", "setting": "cultured lymphocytes [2]; AD, n=9", "result": 54.1602, "unit": "%"}, {"measurement": "Mean (dG1)", "setting": "cultured lymphocytes [2]; ADM, n=7", "result": 58.2765, "unit": "%"}, {"measurement": "Mean (dG1)", "setting": "cultured lymphocytes [2]; CONTROL, n=14", "result": 92.3135, "unit": "%"}, {"measurement": "Mean (dG1)", "setting": "cultured lymphocytes [2]; DNOS, n=3", "result": 65.9933, "unit": "%"}, {"measurement": "Mean (dG1)", "setting": "cultured lymphocytes [2]; POSSAD, n=3", "result": 71.6584, "unit": "%"}, {"measurement": "Mean (dG1)", "setting": "cultured lymphocytes [2]; PREAD, n=13", "result": 31.3039, "unit": "%"}, {"measurement": "Mean dG1 by ApoE4", "setting": "cultured lymphocytes [2]; subjects with 0 ApoE4 alleles, n=28", "result": 61.1186, "unit": "%"}, {"measurement": "Mean dG1 by ApoE4", "setting": "cultured lymphocytes [2]; subjects with 1 ApoE4 allele, n=19", "result": 63.0025, "unit": "%"}, {"measurement": "Mean dG1 by ApoE4", "setting": "cultured lymphocytes [2]; subjects with 2 ApoE4 alleles, n=2", "result": 49.6519, "unit": "%"}]}]}
